Experimental data as given in patent US12274684B2, “Treatment of vasculopathy with prostacyclin and mesenchymal stem cells” (United Therapeutics Corporation, priority 2013, dated 2025).
Values joined by “and” are separate entries in the source; they are usually repeats but may differ in a detail not shown here. Identical values can stand only once.

Tested on: human bone marrow MSC
Assay: Microarray gene expression analysis of MSC (Illumina Human HT12 Expression BeadChip)
Assay type: cell-based
Conditions: Tre(+) 250 μg/mL, 24 h
Procedure: Human bone marrow MSC were expanded and seeded into six (6) T225 flasks using standard growth medium (Table 1). At 95-99% confluency, cells were thoroughly washed with PBS. Three (3) flasks were replenished with basal media containing 250 μg/mL treprostinil, (+)Tre, and the remaining three (3) flasks were replenished with unsupplemented basal media, (−)Tre. After 24 hours of culture, representative images were captured from (+) Tre and (−) Tre cultures. Conditioned media was collected from each replicate, divided into two samples of appropriate volumes, and analyzed separately for: 1) secreted proteins (Myriad RBM InflammationMAP® 1.0) and 2) exosome RNA content. Cells were lysed directly from culture flasks, processed for total RNA isolation, and analyzed for gene expression by microarray (Illumina Human HT12 Expression BeadChip). Microarray gene expression analysis was also performed on MSC from cultures without (−) or with (+) 250 ug/mL treprostinil. Three (3) biological replicates from each condition were analyzed. Of the 77,612 sequences identified among all replicates, only 24,273 were detected above the arbitrary background of 50 counts. 2,984 RNA sequences were unique to Tre(−) cultures, while 1,781 RNA sequences were unique to Tre(+) cultures (panel A). Genes detected in both conditions were further analyzed for differential expression (panel). […] Genes that are expressed only in Tre(−) cultures (that is to say, completely turned off in the Tre(+) cultures) are shown in Table 5.

## CCCCC[C@H](O)CC[C@@H]1[C@H]2Cc3cccc(OCC(=O)O)c3C[C@H]2C[C@H]1O [treprostinil]
  SLC14A1 (NM_015865) expression, Rep 1-3 (Table 4): 95 counts and 102 counts and 67 counts
  SLC16A6 (NM_004694) expression, Rep 1-3: 975 counts and 1342 counts and 784 counts
  SREBF1 (NM_004176) expression, Rep 1-3: 1709 counts and 1842 counts and 1577 counts
  ST6GALNAC6 (NM_013443) expression, Rep 1-3: 424 counts and 651 counts and 445 counts
  TRH (NM_007117) expression, Rep 1-3: 419 counts and 697 counts and 428 counts
  VEGFA (NM_001025370) expression, Rep 1-3: 4761 counts and 6614 counts and 4293 counts
  VEGFA (NM_001171626) expression, Rep 1-3: 6586 counts and 9874 counts and 6349 counts
Tre(−) AVG 0
  GDNF (NM_199231) expression, AVG: 751 counts
  HAS1 (NM_001523) expression, AVG, second entry: 958 counts
Tre(−) AVG 2
  ST6GALNAC6 (NM_013443) expression, AVG: 506 counts
Tre(−) AVG 4
  ANGPTL4 (NM_139314) expression, AVG: 1759 counts
Tre(−) AVG 10
  ATP6V0D2 (NM_152565) expression, AVG: 646 counts
  SLC16A6 (NM_004694) expression, AVG: 1034 counts
Tre(−) AVG 11
  TRH (NM_007117) expression, AVG: 515 counts
Tre(−) AVG 14
  PDE4B (NM_001037339) expression, AVG: 1196 counts
Tre(−) AVG 16
  NGFR (NM_002507) expression, AVG: 1370 counts
  PDE4D (NM_001197222) expression, AVG: 1677 counts
  SLC4A2 (NM_001199693) expression, AVG: 524 counts
Tre(−) AVG 23
  HAS1 (NM_001523) expression, AVG, first entry: 1728 counts
Tre(−) AVG 26
  ATF3 (NM_001030287) expression, AVG: 1207 counts
Tre(−) AVG 27
  KYNU (NM_003937) expression, AVG: 862 counts
Tre(−) AVG 33
  PDK4 (NM_002612) expression, AVG: 1399 counts
Tre(−) AVG 36
  PDE4D (NM_001197221) expression, AVG: 1124 counts
  STC1 (NM_003155) expression, AVG: 1584 counts
Tre(−) AVG 37
  ATF3 (NM_001674) expression, AVG: 676 counts
Tre(−) AVG 39
  BMP6 (NM_001718) expression, AVG: 1324 counts
Tre(−) AVG 40
  KTN1 (NM_001079522) expression, AVG: 579 counts
  SEC31A (NM_001077207) expression, AVG: 732 counts
Tre(−) AVG 42
  PLOD2 (NM_000935) expression, AVG: 1258 counts
Tre(−) AVG 43
  GDNF (NM_000514) expression, AVG: 786 counts
Tre(−) AVG 46
  PTGS2 (NM_000963) expression, AVG: 10888 counts
Tre(−) AVG 48
  PAQR5 (NM_017705) expression, AVG: 704 counts
Tre(−) AVG 50
  IL11 (NM_000641) expression, AVG: 929 counts
Tre(−) AVG 51
  SCG2 (NM_003469) expression, AVG: 1090 counts
Tre(−) AVG 52
  PITPNC1 (NM_181671) expression, AVG: 824 counts
Tre(−) AVG 53
  IGFBP1 (NM_000596) expression, AVG: 6304 counts
Tre(−) AVG 54
  SLC6A15 (NM_182767) expression, AVG: 1277 counts
Tre(−) AVG 55
  HSD11B1 (NM_005525) expression, AVG: 849 counts
  NR4A2 (NM_006186) expression, AVG: 679 counts
Tre(−) AVG 58
  PTP4A1 (NM_003463) expression, AVG: 685 counts
  SIK1 (NM_173354) expression, AVG: 1183 counts
Tre(−) AVG 63
  IL6 (NM_000600) expression, AVG: 6859 counts
Tre(−) AVG 77
  SMOX (NM_175840) expression, AVG: 955 counts
Tre(−) AVG 78
  PALLD (NM_001166110) expression, AVG: 1033 counts
Tre(−) AVG 85
  DUSP1 (NM_004417) expression, AVG: 1092 counts
Tre(−) AVG 89
  SAT1 (transcript variant 2, non-coding RNA) expression, AVG: 1208 counts
Tre(−) AVG 91
  PRKAG2 (NM_024429) expression, AVG: 7155 counts
Tre(−) AVG 129
  LIPG (NM_006033) expression, AVG: 1702 counts
Tre(−) AVG 132
  IER3 (NM_003897) expression, AVG: 2974 counts
Tre(−) AVG 148
  SREBF1 (NM_004176) expression, AVG: 1709 counts
Tre(−) AVG 155
  IDH1 (NM_005896) expression, AVG: 2039 counts
Tre(−) AVG 176
  C11orf96 (NM_001145033) expression, AVG: 2105 counts
Tre(−) AVG 202
  CD55 (NM_001114752) expression, AVG: 2663 counts
Tre(−) AVG 355
  GPRC5A (NM_003979) expression, AVG: 4684 counts
Tre(−) AVG 359
  CD55 (NM_000574) expression, AVG: 7712 counts
Tre(−) AVG 386
  VEGFA (NM_001025370) expression, AVG: 5223 counts
Tre(−) AVG 421
  GDF15 (NM_004864) expression, AVG: 13505 counts
Tre(−) AVG 504
  TIAM2 (NM_012454) expression, AVG: 20 counts
Tre(−) AVG 511
  KIAA0930 (NM_015264) expression, AVG: 48 counts
Tre(−) AVG 523
  CALD1 (NM_033140) expression, AVG: 0 counts
Tre(−) AVG 526
  MBNL1 (NM_207297) expression, AVG: 46 counts
Tre(−) AVG 538
  NAP1L3 (NM_004538) expression, AVG: 48 counts
Tre(−) AVG 543
  CLDN11 (NM_005602) expression, AVG: 13 counts
Tre(−) AVG 559
  FAM198B (NM_001128424) expression, AVG: 15 counts
Tre(−) AVG 613
  SLC7A8 (NM_182728) expression, AVG: 43 counts
Tre(−) AVG 625
  ASPM (NM_018136) expression, AVG: 26 counts
Tre(−) AVG 631
  CPA4 (NM_016352) expression, AVG: 53 counts
Tre(−) AVG 644
  CELF1 (NM_001172640) expression, AVG: 59 counts
Tre(−) AVG 648
  TCF12 (NM_207040) expression, AVG: 40 counts
Tre(−) AVG 652
  SCN2A (NM_021007) expression, AVG: 20 counts
Tre(−) AVG 658
  ASPH (NM_001164754) expression, AVG: 37 counts
Tre(−) AVG 661
  CIT (NM_001206999) expression, AVG: 9 counts
Tre(−) AVG 664
  VEGFA (NM_001171626) expression, AVG: 7603 counts
Tre(−) AVG 669
  ANLN (NM_018685) expression, AVG: 57 counts
Tre(−) AVG 731
  ST8SIA1 (NM_003034) expression, AVG: 45 counts
  TPM1 (NM_001018007) expression, AVG: 36 counts
Tre(−) AVG 733
  FAM84A (NM_145175) expression, AVG: 45 counts
  SPATA20 (NM_022827) expression, AVG: 15 counts
Tre(−) AVG 744
  PRRT2 (NM_145239) expression, AVG: 36 counts
Tre(−) AVG 746
  LRRC17 (NM_001031692) expression, AVG: 22 counts
Tre(−) AVG 780
  ANGPT1 (NM_001146) expression, AVG: 53 counts
Tre(−) AVG 811
  ANK3 (NM_001204403) expression, AVG: 57 counts
Tre(−) AVG 813
  SNX14 (NM_153816) expression, AVG: 18 counts
Tre(−) AVG 814
  RCAN1 (NM_203418) expression, AVG: 8908 counts
Tre(−) AVG 816
  OLFML1 (NM_198474) expression, AVG (Table 5): 42 counts
Tre(−) AVG 857
  RASA4 (NM_006989) expression, AVG: 11 counts
Tre(−) AVG 883
  GDF5 (NM_000557) expression, AVG: 71 counts
Tre(−) AVG 886
  MAP1B (NM_005909) expression, AVG: 42 counts
Tre(−) AVG 918
  C13orf33 (NM_032849) expression, AVG: 19296 counts
Tre(−) AVG 982
  MEOX2 (NM_005924) expression, AVG: 31 counts
Tre(−) AVG 991
  MYLK (NM_053025) expression, AVG: 0 counts
Tre(−) AVG 1036
  SLC14A1 (NM_015865) expression, AVG (Table 5): 19 counts
Tre(−) AVG 1052
  FLG (NM_002016) expression, AVG: 28 counts
Tre(−) AVG 1150
  ARPC4 (NM_001024960) expression, AVG: 12 counts
Tre(−) AVG 1218
  RCAN2 (NM_001251974) expression, AVG: 105 counts
Tre(−) AVG 1272
  EPB41L2 (NM_001199389) expression, AVG: 113 counts
Tre(−) AVG 1281
  SLC2A12 (NM_145176) expression, AVG: 105 counts
Tre(−) AVG 1283
  MEST (NM_002402) expression, AVG: 85 counts
Tre(−) AVG 1299
  METTL7A (NM_014033) expression, AVG: 109 counts
Tre(−) AVG 1312
  S100A4 (NM_002961) expression, AVG: 125 counts
Tre(−) AVG 1316
  RBFOX2 (NM_001031695) expression, AVG: 10 counts
Tre(−) AVG 1459
  ACTN1 (NM_001130005) expression, AVG: 115 counts
Tre(−) AVG 1465
  OLFML2B (NM_015441) expression, AVG: 70 counts
Tre(−) AVG 1474
  PRELP (NM_002725) expression, AVG: 114 counts
Tre(−) AVG 1569
  COL21A1 (NM_030820) expression, AVG: 57 counts
Tre(−) AVG 1621
  SLC14A1 (NM_015865) expression, AVG (Table 4): 88 counts
Tre(−) AVG 1685
  DDAH1 (NM_001134445) expression, AVG: 133 counts
Tre(−) AVG 1722
  LMOD1 (NM_012134) expression, AVG: 65 counts
Tre(−) AVG 1734
  OLFML1 (NM_198474) expression, AVG (Table 4): 140 counts
Tre(−) AVG 1759
  MXRA5 (NM_015419) expression, AVG: 54 counts
Tre(−) AVG 1932
  DKFZp547J0510 (CDNA FLJ42650 fis, clone BRACE3027478) expression, AVG: 148 counts
Tre(−) AVG 1976
  PLIN2 (NM_001122) expression, AVG: 92927 counts
Tre(−) AVG 2551
  SYNPO2 (NM_001128933) expression, AVG: 104 counts
Tre(−) AVG 2719
  ASPH (NM_004318) expression, AVG: 1 counts
Tre(−) AVG 2936
  SREBF1 (NM_001005291) expression, AVG: 12 counts
Tre(−) AVG 3190
  SLC3A2 (NM_001013251) expression, AVG: 33526 counts
Tre(−) AVG 3361
  PDE5A (NM_033430) expression, AVG: 222 counts
Tre(−) AVG 3552
  MEST (NM_177525) expression, AVG: 298 counts
Tre(−) AVG 4013
  RND3 (NM_005168) expression, AVG: 51756 counts
Tre(−) AVG 5533
  ISLR (NM_005545) expression, AVG: 548 counts
Tre(−) AVG 9809
  PALLD (NM_001166109) expression, AVG: 753 counts
Tre(−) AVG 10574
  CXCL12 (NM_199168) expression, AVG: 671 counts
Tre(−) AVG 23012
  CTGF (NM_001901) expression, AVG: 741 counts
Tre(−) AVG 54326
  COL6A3 (NM_004369) expression, AVG: 4635 counts
